# In patent US12448389B2, “BRM targeting compounds and associated methods of use” (Prelude Therapeutics Incorporated, priority 2020, dated 2025):
# Columns and labels:
# [1] = target: T1, SMARCA4-HiBiT (Homo sapiens, UniProt P51532); assay: SMARCA4 HiBiT degradation assay in HeLa cells; format: cell-based; settings: 18 hours incubation; for DC50: read-out: HeLa-HiBit-SM4 DC50; for Dmax: HeLa, read-out: HeLa-HiBit-SM4 Dmax (%)
# T1 construct: SMARCA4-HiBiT knock-in Hela monoclonal cell (CS3023226); host or cells: HeLa monoclonal knock-in line (CRISPR HiBiT knock-in at the endogenous locus, heterozygous)
# Procedure, shortened: (§1)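 HeLa monoclonal lines with heterozygous HiBiT knock-in were seeded at 2500 cells/well in EMEM with 10% FBS and treated with compound for 18 h at 37 °C. Remaining tagged protein was measured by Nano-Glo HiBiT lytic luminescence after 30–60 min at RT, and values came from curve fitting.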
# [2] = target: T2, SMARCA2-HiBiT (Homo sapiens, UniProt P51531); assay: SMARCA2 HiBiT degradation assay in HeLa cells; format: cell-based; settings: 18 hours incubation; for DC50: read-out: HeLa_HiBit-SM2 DC50; for Dmax: HeLa, read-out: HeLa-HiBit-SM2 Dmax (%)
# T2 construct: SMARCA2-HiBiT knock-in Hela monoclonal cell (CS302366); host or cells: HeLa monoclonal knock-in line (CRISPR HiBiT knock-in at the endogenous locus, heterozygous)
# Procedure, shortened: as §1
# T1 sequence (P51532 whole entry): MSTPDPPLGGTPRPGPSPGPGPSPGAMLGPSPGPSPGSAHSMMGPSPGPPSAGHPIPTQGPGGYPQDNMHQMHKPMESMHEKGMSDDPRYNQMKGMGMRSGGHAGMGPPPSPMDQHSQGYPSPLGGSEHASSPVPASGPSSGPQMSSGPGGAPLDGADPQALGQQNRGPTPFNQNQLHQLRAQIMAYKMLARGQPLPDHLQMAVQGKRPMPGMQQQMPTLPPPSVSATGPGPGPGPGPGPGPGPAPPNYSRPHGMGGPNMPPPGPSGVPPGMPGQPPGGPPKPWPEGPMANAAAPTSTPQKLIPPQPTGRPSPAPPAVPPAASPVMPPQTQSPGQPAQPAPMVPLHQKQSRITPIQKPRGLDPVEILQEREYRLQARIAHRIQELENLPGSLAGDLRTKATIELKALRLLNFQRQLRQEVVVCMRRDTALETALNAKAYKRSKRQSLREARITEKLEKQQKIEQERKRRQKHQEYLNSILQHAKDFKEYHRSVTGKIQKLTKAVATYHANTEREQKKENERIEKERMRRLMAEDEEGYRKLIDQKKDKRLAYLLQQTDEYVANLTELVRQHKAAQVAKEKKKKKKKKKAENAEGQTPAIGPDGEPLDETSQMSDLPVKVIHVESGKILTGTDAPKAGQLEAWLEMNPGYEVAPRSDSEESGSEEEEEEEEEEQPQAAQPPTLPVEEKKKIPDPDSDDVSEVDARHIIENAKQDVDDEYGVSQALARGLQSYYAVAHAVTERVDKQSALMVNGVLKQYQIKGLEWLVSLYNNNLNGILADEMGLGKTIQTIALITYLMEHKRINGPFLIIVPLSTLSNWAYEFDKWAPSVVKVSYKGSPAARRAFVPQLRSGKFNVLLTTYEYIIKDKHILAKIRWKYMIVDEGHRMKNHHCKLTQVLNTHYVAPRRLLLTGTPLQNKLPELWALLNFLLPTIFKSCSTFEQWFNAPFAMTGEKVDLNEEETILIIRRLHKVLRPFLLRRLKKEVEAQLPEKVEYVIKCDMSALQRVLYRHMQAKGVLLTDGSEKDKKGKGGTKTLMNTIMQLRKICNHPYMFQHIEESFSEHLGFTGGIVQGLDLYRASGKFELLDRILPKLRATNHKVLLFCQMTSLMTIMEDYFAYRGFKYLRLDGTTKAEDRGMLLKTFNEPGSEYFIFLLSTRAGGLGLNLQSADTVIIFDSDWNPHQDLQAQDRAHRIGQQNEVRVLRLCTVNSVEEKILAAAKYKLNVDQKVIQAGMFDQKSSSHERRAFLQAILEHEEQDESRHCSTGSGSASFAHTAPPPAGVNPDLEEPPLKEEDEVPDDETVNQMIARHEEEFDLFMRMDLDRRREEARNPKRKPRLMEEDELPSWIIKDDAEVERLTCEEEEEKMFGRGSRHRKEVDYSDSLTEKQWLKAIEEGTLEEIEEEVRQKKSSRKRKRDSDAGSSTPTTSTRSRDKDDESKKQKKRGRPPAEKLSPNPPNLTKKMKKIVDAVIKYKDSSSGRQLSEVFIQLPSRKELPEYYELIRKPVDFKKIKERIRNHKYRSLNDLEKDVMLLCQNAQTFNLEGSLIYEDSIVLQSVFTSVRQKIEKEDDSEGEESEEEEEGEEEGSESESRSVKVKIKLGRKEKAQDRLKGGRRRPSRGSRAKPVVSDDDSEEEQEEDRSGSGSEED
# T2 sequence (P51531 whole entry): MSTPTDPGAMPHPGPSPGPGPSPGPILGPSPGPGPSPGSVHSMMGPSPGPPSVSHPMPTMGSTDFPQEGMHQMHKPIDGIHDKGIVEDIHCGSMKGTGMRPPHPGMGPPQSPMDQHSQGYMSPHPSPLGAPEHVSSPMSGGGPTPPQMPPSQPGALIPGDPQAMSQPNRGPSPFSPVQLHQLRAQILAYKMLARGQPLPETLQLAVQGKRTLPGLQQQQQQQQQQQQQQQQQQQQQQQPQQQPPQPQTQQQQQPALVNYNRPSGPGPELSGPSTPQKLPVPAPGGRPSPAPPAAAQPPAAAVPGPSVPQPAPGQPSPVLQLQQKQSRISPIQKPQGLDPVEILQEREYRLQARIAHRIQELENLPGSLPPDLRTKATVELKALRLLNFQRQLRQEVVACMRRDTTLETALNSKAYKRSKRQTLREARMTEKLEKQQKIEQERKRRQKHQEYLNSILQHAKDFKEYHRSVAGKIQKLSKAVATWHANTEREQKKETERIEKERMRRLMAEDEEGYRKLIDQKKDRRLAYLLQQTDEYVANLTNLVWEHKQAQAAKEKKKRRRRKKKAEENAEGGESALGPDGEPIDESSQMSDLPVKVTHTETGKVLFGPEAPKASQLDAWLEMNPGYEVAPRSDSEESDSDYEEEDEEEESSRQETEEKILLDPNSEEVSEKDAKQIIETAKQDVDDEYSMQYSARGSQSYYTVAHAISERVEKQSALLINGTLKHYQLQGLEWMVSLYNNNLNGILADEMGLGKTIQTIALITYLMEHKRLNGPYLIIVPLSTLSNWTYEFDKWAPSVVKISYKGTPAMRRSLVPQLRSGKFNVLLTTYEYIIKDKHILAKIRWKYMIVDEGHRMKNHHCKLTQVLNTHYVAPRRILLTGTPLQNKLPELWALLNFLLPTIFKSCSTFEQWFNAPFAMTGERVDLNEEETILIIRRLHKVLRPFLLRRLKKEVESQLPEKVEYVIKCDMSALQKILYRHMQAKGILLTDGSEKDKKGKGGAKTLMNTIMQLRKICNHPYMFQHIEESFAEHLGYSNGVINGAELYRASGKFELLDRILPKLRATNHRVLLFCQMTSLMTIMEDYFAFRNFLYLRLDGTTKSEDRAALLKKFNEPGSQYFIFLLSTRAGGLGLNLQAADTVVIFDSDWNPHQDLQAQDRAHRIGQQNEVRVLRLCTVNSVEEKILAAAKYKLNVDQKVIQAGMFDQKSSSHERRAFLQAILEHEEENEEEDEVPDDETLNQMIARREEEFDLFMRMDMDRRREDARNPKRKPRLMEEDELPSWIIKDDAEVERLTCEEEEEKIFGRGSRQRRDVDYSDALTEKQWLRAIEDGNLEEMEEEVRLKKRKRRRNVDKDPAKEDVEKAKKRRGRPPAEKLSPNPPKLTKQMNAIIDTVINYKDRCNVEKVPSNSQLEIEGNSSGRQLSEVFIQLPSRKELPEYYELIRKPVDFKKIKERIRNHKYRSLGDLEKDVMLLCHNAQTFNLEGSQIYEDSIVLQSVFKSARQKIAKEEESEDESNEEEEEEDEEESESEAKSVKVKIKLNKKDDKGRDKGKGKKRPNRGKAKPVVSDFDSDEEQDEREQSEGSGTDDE
SMILES,DC50 [1],Dmax [1],DC50 [2],Dmax [2],HeLa-HiBit-SM4 Dmax (%) [1]
"O=C1CCC(N2C(=O)c3ccc(OC4CCN(CC5CCN(CCN6CCN7c8cc(-c9ccccc9O)nnc8NC[C@H]7C6)CC5)CC4)cc3C2=O)C(=O)N1 (stereo partly drawn) [Example 216, 2-(2,6-dioxopiperidin-3-yl)-5-((1-((1-(2-((S)-2-(2-hydroxyphenyl)-5,6,6a,7,9,10-hexahydro-8H-pyrazino[1′,2′:4,5]pyrazino[2,3-c]pyridazin-8-yl)ethyl)piperidin-4-yl)methyl)piperidin-4-yl)oxy) isoindoline-N, 3-dione]",< 10 nM,50 to 75%,< 10 nM,> 85%,
"O=C1CCC(N2C(=O)c3ccc(N4CCN(CCN5CCC(N6CCN7c8cc(-c9ccccc9O)nnc8NC[C@H]7C6)CC5)CC4)cc3C2=O)C(=O)N1 (stereo partly drawn) [Example 155, 2-(2,6-dioxopiperidin-3-yl)-5-(4-(2-(4-((S)-2-(2-hydroxyphenyl)-5,6,6a,7,9,10-hexahydro-8H-pyrazino[1′,2′:4,5]pyrazino[2,3-c]pyridazin-8-yl)piperidin-1-yl)ethyl)piperazin-1-yl)isoindoline-1,3-dione]",< 10 nM,> 85%,< 10 nM,> 85%,
"CC1CN(c2ccc3c(c2)C(=O)N(C2CCC(=O)NC2=O)C3=O)CCC1CN1C[C@@H]2[C@H](C1)[C@H]2CN1CCN2c3cc(-c4ccccc4O)nnc3NC[C@H]2C1 (stereo partly drawn) [Example 197, 2-(2,6-dioxopiperidin-3-yl)-5-(4-(((1R,5S,6r)-6-(((S)-2-(2-hydroxyphenyl)-5,6,6a,7,9,10-hexahydro-8H-pyrazino[1′,2′:4,5]pyrazino[2,3-c]pyridazin-8-yl)methyl)-3-azabicyclo[3.1.0]hexan-3-yl)methyl)-3-methylpiperidin-1-yl)isoindoline-1,3-dione]",< 10 nM,,< 10 nM,> 85%,B (B=75%<Dmax<=85%)
"CC12CNc3nnc(-c4ccccc4O)cc3N1CCN(C1CCN(CCCc3ccc4c(c3)c3cccnc3n4C3CCC(=O)NC3=O)CC1)C2 (stereo not drawn) [Example 25, 3-(6-(3-(4-(2-(2-hydroxyphenyl)-6a-methyl-5,6,6a,7,9,10-hexahydro-8H-pyrazino[1′,2′:4,5]pyrazino[2,3-c]pyridazin-8-yl)piperidin-1-yl)propyl)-9H-pyrido[2,3-b]indol-9-yl)piperidine-2,6-dione]",< 10 nM,75 to 85%,< 10 nM,> 85%,
"O=C1CCC(N2C(=O)c3cccc(N4CCC(CN5CCC(CN6CCN7c8cc(-c9ccccc9O)nnc8NC[C@H]7C6)CC5)CC4)c3C2=O)C(=O)N1 (stereo partly drawn) [Example 127, 2-(2,6-dioxopiperidin-3-yl)-4-(4-((4-(((S)-2-(2-hydroxyphenyl)-5,6,6a,7,9,10-hexahydro-8H-pyrazino[1′,2′:4,5]pyrazino[2,3-c]pyridazin-8-yl)methyl)piperidin-1-yl)methyl)piperidin-1-yl) isoindoline-1,3-dione]",< 10 nM,75 to 85%,< 10 nM,> 85%,
"O=C1CCC(N2C(=O)c3ccc(N4CCC(CN5CCC(CCN6CCN7c8cc(-c9ccccc9O)nnc8NC[C@H]7C6)CC5)CC4)cc3C2=O)C(=O)N1 (stereo partly drawn) [Example 229, 2-(2,6-dioxopiperidin-3-yl)-5-(4-((4-(2-((S)-2-(2-hydroxyphenyl)-5,6,6a,7,9,10-hexahydro-8H-pyrazino[1′,2′:4,5]pyrazino[2,3-c]pyridazin-8-yl)ethyl)piperidin-1-yl)methyl)piperidin-1-yl)isoindoline-1,3-dione]",< 10 nM,> 85%,< 10 nM,> 85%,
"O=C1CCC(N2C(=O)c3ccc(N4CCC(NC5CCC(CN6CCN7c8cc(-c9ccccc9O)nnc8NC[C@H]7C6)CC5)CC4)cc3C2=O)C(=O)N1 (stereo partly drawn) [Example 163, 2-(2,6-dioxopiperidin-3-yl)-5-[4-[[4-[[(10S)-4-(2-hydroxyphenyl)-1,5,6,8,12-pentazatricyclo[8.4.0.02,7]tetradeca-2,4,6-trien-12-yl]methyl]cyclohexyl]amino]piperidin-1-yl]isoindole-1,3-dione]",< 10 nM,> 85%,< 10 nM,> 85%,
"O=C1CCC(N2C(=O)c3ccc(N4[C@@H]5CC[C@H]4CC(CN4CCC(CN6CCN7c8cc(-c9ccccc9O)nnc8NC[C@H]7C6)CC4)C5)cc3C2=O)C(=O)N1 (stereo partly drawn) [Example 180, 2-(2,6-dioxopiperidin-3-yl)-5-[(1S,5R)-3-[[4-[[(10S)-4-(2-hydroxyphenyl)-1,5,6,8,12-pentazatricyclo[8.4.0.02,7]tetradeca-2,4,6-trien-12-yl]methyl]piperidin-1-yl]methyl]-8-azabicyclo[3.2.1]octan-8-yl]isoindole-1,3-dione]",< 10 nM,75 to 85%,< 10 nM,75 to 85%,
"O=C1CCC(N2C(=O)c3ccc(N4CCC(CN5CCC(C(=O)N6CCN7c8cc(-c9ccccc9O)nnc8NC[C@H]7C6)CC5)C(F)(F)C4)cc3C2=O)C(=O)N1 (stereo partly drawn) [Example 196, 5-[3,3-difluoro-4-[[4-[(10S)-4-(2-hydroxyphenyl)-1,5,6,8,12-pentazatricyclo[8.4.0.02,7]tetradeca-2(7),3,5-trien-12-carbonyl]piperidin-1-yl]methyl]piperidin-1-yl]-2-(2,6-dioxopiperidin-3-yl) isoindole-1,3-dione]",10 to 100 nM,50 to 75%,< 10 nM,75 to 85%,
"O=C1CCC(N2C(=O)c3ccc(N4CCC(CN5CCN(C(=O)N6CCN7c8cc(-c9ccccc9O)nnc8NC[C@H]7C6)CC5)C(F)(F)C4)cc3C2=O)C(=O)N1 (stereo partly drawn) [Example 195, 5-[3,3-difluoro-4-[[4-[(10S)-4-(2-hydroxyphenyl)-1,5,6,8,12-pentazatricyclo[8.4.0.02,7]tetradeca-2(7),3,5-trien-12-carbonyl]piperazin-1-yl]methyl]piperidin-1-yl]-2-(2,6-dioxopiperidin-3-yl) isoindole-1,3-dione]",10 to 100 nM,50 to 75%,< 10 nM,50 to 75%,
"O=C1CCC(N2C(=O)c3ccc(C4CCN(C5CCN(CCN6CCN7c8cc(-c9ccccc9O)nnc8NC[C@H]7C6)C5)CC4)cc3C2=O)C(=O)N1 (stereo partly drawn) [Example 243, 2-(2,6-dioxopiperidin-3-yl)-5-(1-(1-(2-((S)-2-(2-hydroxyphenyl)-5,6,6a,7,9,10-hexahydro-8H-pyrazino[1′,2′:4,5]pyrazino[2,3-c]pyridazin-8-yl)ethyl)pyrrolidin-3-yl)piperidin-4-yl)isoindoline-1,3-dione]",< 10 nM,> 85%,< 10 nM,> 85%,
"O=C1CCC(N2C(=O)c3ccc(N4CCC(CN5CC6(CC(CN7CCN8c9cc(-c%10ccccc%10O)nnc9NC[C@H]8C7)C6)C5)CC4)cc3C2=O)C(=O)N1 (stereo partly drawn) [Example 41, 2-(2,6-dioxopiperidin-3-yl)-5-(4-((6-(((S)-2-(2-hydroxyphenyl)-5,6,6a,7,9,10-hexahydro-8H-pyrazino[1′,2′:4,5]pyrazino[2,3-c]pyridazin-8-yl)methyl)-2-azaspiro[3.3]heptan-2-yl)methyl)piperidin-1-yl)isoindoline-1,3-dione]",< 10 nM,> 85%,< 10 nM,> 85%,
